Source: patent US9624214B2, “Amino-substituted imidazo[1,2-a]pyridinecarboxamides and their use” (BAYER PHARMA AKTIENGESELLSCHAFT, priority 2012, dated 2017)

molecular target: T1, recombinant guanylate cyclase reporter cell line (Rattus norvegicus, UniProt P19686+P20595); assay: B-2. Action on recombinant guanylate cyclase reporter cell line; type: cell-based; settings: MEC = minimal effective concentration; in some cases mean values from individual determinations
T1 construct: expressed in transfected cells
T1 sequence (P20595 1-619): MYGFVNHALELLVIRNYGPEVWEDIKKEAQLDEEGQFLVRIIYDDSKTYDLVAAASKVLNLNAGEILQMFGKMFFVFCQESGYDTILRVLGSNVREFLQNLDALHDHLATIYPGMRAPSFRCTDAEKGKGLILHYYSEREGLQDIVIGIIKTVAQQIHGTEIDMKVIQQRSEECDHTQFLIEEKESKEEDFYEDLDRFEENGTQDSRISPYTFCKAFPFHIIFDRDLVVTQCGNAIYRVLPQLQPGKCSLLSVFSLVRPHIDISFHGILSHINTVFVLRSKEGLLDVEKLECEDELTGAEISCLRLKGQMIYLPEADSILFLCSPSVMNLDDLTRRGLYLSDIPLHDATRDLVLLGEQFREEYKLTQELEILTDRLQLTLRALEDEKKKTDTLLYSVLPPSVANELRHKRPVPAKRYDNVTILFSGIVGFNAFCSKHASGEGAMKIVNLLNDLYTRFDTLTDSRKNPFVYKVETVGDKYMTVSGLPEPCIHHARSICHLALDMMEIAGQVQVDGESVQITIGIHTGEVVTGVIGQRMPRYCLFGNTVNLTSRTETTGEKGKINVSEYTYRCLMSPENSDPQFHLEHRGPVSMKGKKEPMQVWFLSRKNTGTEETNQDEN
T1 sequence (P19686 1-690): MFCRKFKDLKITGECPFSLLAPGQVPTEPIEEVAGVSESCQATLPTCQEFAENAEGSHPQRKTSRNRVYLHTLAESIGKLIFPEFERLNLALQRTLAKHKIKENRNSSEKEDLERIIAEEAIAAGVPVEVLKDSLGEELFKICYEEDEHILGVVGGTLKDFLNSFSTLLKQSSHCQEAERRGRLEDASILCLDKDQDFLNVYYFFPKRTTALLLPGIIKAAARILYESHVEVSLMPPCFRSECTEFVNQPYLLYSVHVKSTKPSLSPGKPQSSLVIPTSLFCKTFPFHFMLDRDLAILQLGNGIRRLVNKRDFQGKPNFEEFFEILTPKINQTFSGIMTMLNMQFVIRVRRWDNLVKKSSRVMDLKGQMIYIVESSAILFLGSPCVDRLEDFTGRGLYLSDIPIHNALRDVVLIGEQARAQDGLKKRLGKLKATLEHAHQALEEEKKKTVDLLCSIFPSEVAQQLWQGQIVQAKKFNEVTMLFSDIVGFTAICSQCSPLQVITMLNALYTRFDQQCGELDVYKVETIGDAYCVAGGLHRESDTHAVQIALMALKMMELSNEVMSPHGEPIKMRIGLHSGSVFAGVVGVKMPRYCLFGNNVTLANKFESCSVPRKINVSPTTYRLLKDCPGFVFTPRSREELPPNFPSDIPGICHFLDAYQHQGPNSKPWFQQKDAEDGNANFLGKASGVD
In short: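 MEC values, meaning the lowest concentration producing a detectable response, were taken from a recombinant cyclase reporter cell assay. Where repeated, individual determinations were averaged.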

Going from Cc1nc2c(OCc3c(F)cccc3F)cccn2c1C(=O)NC1CCNc2ccccc21 (single isomer, unassigned; ent-8) [Example 52, ent-8-[(2,6-Difluorobenzyl)oxy]-2-methyl-N-(1,2,3,4-tetrahydroquinolin-4-yl)imidazo[1,2-a]-pyridine-3-carboxamide] to Cc1nc2c(OCc3c(F)cccc3F)cccn2c1C(=O)NC1CCNc2ccc(F)cc21 (single isomer, unassigned; ent-8) [Example 105, ent-8-[(2,6-difluorobenzyl)oxy]-N-(6-fluoro-1,2,3,4-tetrahydroquinolin-4-yl)-2-methylimidazo[1,2-a] pyridine-3-carboxamide], the MEC rises from 0.03 µM to 0.30 µM (10-fold).

Cc1nc2c(OCc3c(F)cccc3F)cccn2c1C(=O)NC1CNc2ccccc2C1 (single isomer, unassigned; ent-8) [Example 81, ent-8-[(2,6-Difluorobenzyl)oxy]-2-methyl-N-(1,2,3,4-tetrahydroquinolin-3-yl)imidazo[1,2-a]-pyridine-3-carboxamide] and Cc1nc2c(OCc3c(F)cccc3F)cccn2c1C(=O)NC1CNCc2ccccc21 (single isomer, unassigned; ent-8) [Example 109, ent-8-[(2,6-difluorobenzyl)oxy]-2-methyl-N-(1,2,3,4-tetrahydroisoquinolin-4-yl)imidazo[1,2-a]pyridine-3-carboxamide] are the same in MEC: 1.00 µM for the first, 1.00 µM for the second.

Going from Cc1nc2c(OCc3c(F)cccc3F)cccn2c1C(=O)NC1CCNc2ccc(F)cc21 (single isomer, unassigned; ent-8) [Example 106, ent-8-[(2,6-difluorobenzyl)oxy]-N-(6-fluoro-1,2,3,4-tetrahydroquinolin-4-yl)-2-methylimidazo[1,2-a] pyridine-3-carboxamide] to Cc1nc2c(OCc3c(F)cccc3F)cccn2c1C(=O)NC1CCNc2ccc(C(F)(F)F)cc21 (single isomer, unassigned; ent-8) [Example 111, ent-8-[(2,6-difluorobenzyl)oxy]-2-methyl-N-[6-(trifluoromethyl)-1,2,3,4-tetrahydroquinolin-4-yl]imidazo[1,2-a]pyridine-3-carboxamide], the MEC rises from 0.03 µM to 1.00 µM (33-fold).

Going from Cc1nc2c(OCc3c(F)cccc3F)cccn2c1C(=O)NC1CNCc2ccccc21 (single isomer, unassigned; ent-8) [Example 110, ent-8-[(2,6-difluorobenzyl)oxy]-2-methyl-N-(1,2,3,4-tetrahydroisoquinolin-4-yl)imidazo[1,2-a]pyridine-3-carboxamide] to Cc1nc2c(OCc3c(F)cccc3F)cccn2c1C(=O)NC1CCNc2ccc(C(F)(F)F)cc21 (single isomer, unassigned; ent-8) [Example 112, ent-8-[(2,6-difluorobenzyl)oxy]-2-methyl-N-[6-(trifluoromethyl)-1,2,3,4-tetrahydroquinolin-4-yl]imidazo[1,2-a]pyridine-3-carboxamide], the MEC falls from 0.30 µM to 0.10 µM (3-fold).

Compared with Cc1nc2c(OCc3c(F)cccc3F)cccn2c1C(=O)NCC(C)N1CCOCC1 (single isomer, unassigned; ent-8) [Example 180, ent-8-[(2,6-Difluorobenzyl)oxy]-2-methyl-N-[2-(morpholin-4-yl)propyl]imidazo[1,2-a]pyridine-3-carboxamide], Cc1cc(OCc2c(F)cccc2F)c2nc(C)c(C(=O)NCC(C)N3CCOCC3)n2c1 (single isomer, unassigned; ent-8) [Example 186, ent-8-[(2,6-Difluorobenzyl)oxy]-2,6-dimethyl-N-[2-(morpholin-4-yl)propyl]imidazo[1,2-a]-pyridine-3-carboxamide] is 3.3-fold lower in MEC: 1.00 µM for the first, 0.30 µM for the second.

Compared with Cc1nc2c(OCc3c(F)cccc3F)cccn2c1C(=O)NCC(C)N1CCOCC1 (single isomer, unassigned; ent-8) [Example 181, ent-8-[(2,6-Difluorobenzyl)oxy]-2-methyl-N-[2-(morpholin-4-yl)propyl]imidazo[1,2-a]pyridine-3-carboxamide], Cc1cc(OCc2c(F)cccc2F)c2nc(C)c(C(=O)NCC(C)N3CCOCC3)n2c1 (single isomer, unassigned; ent-8) [Example 187, ent-8-[(2,6-Difluorobenzyl)oxy]-2,6-dimethyl-N-[2-(morpholin-4-yl)propyl]imidazo[1,2-a]-pyridine-3-carboxamide] is 3.3-fold lower in MEC: 1.00 µM for the first, 0.30 µM for the second.

First: Cc1nc2c(OCc3c(F)cccc3F)cccn2c1C(=O)NC(CN1CCOCC1)c1ccccc1 (single isomer, unassigned; ent-8) [Example 182, ent-8-[(2,6-Difluorobenzyl)oxy]-2-methyl-N-[2-(morpholin-4-yl)-1-phenylethyl]imidazo[1,2-a]-pyridine-3-carboxamide]
Second: Cc1nc2c(OCc3c(F)cccc3F)cccn2c1C(=O)NC(CN)c1ccc(F)cc1F (stereo not drawn) [Example 21, ent-N-[2-Amino-1-(2,4-difluorophenyl)ethyl]-8-[(2,6-difluorobenzyl)oxy]-2-methylimidazo[1,2-a]-pyridine-3-carboxamide]
The MEC of the first is 10-fold higher: 3.00 µM for the first, 0.30 µM for the second.

Compared with Cc1nc2c(OCc3c(F)cccc3F)cccn2c1C(=O)NC(CN1CCOCC1)c1ccccc1 (single isomer, unassigned; ent-8) [Example 183, ent-8-[(2,6-Difluorobenzyl)oxy]-2-methyl-N-[2-(morpholin-4-yl)-1-phenylethyl]imidazo[1,2-a]-pyridine-3-carboxamide], Cc1nc2c(OCc3c(F)cccc3F)cccn2c1C(=O)NC(CNCC(F)(F)F)c1ccc(F)c(F)c1 (single isomer, unassigned; ent-8) [Example 222, ent-8-[(2,6-Difluorobenzyl)oxy]-N-{1-(3,4-difluorophenyl)-2-[(2,2,2-trifluoroethyl)amino]ethyl}-2-methylimidazo[1,2-a]pyridine-3-carboxamide] is 3.3-fold lower in MEC: 1.00 µM for the first, 0.30 µM for the second.

Going from Cc1nc2c(OCc3c(F)cccc3F)cccn2c1C(=O)NCC(C(C)C)N(C)C (single isomer, unassigned; ent-8) [Example 188, ent-8-[(2,6-Difluorobenzyl)oxy]-N-[2-(dimethylamino)-3-methylbutyl]-2-methylimidazo[1,2-a]-pyridine-3-carboxamide] to Cc1nc2c(OCc3c(F)cccc3F)cc(Cl)cn2c1C(=O)NC(C)CN (stereo not drawn) [Example 22, ent-N-(1-aminopropan-2-yl)-6-chloro-8-[(2,6-difluorobenzyl)oxy]-2-methylimidazo[1,2-a]-pyridine-3-carboxamide], the MEC falls from 1.00 µM to 0.30 µM (3.3-fold).

Going from Cc1nc2c(OCc3c(F)cccc3F)cccn2c1C(=O)NCC(C(C)C)N(C)C (single isomer, unassigned; ent-8) [Example 189, ent-8-[(2,6-Difluorobenzyl)oxy]-N-[2-(dimethylamino)-3-methylbutyl]-2-methylimidazo[1,2-a]-pyridine-3-carboxamide] to Cc1nc2c(OCc3c(F)cccc3F)cccn2c1C(=O)NC1CC2CCCC(C1)N2C1CC1 (stereo not shown) [Example 1, N-(9-Cyclopropyl-9-azabicyclo[3.3.1]non-3-yl)-8-[(2,6-difluorobenzyl)oxy]-2-methylimidazo[1,2-a]pyridine-3-carboxamide], the MEC falls from 3.00 µM to 0.10 µM (30-fold).

CCC1CC(NC(=O)c2c(C)nc3c(OCc4c(F)cccc4F)cc(C)cn23)c2nc(C(F)(F)F)ccc2N1 (single isomer, unassigned; ent-8) [Example 325, ent-8-[(2,6-Difluorobenzyl)oxy]-N-[2-ethyl-6-(trifluoromethyl)-1,2,3,4-tetrahydro-1,5-naphthyridin-4-yl]-2,6-dimethylimidazo[1,2-a]pyridine-3-carboxamide] and Cc1cc(OCc2c(F)cccc2F)c2nc(C)c(C(=O)NC3CC(C)Nc4ccc(C(F)(F)F)nc43)n2c1 (single isomer, unassigned; ent-8) [Example 326, ent-8-[(2,6-Difluorobenzyl)oxy]-2,6-dimethyl-N-[2-methyl-6-(trifluoromethyl)-1,2,3,4-tetrahydro-1,5-naphthyridin-4-yl]imidazo[1,2-a]pyridine-3-carboxamide] are the same in MEC: 0.30 µM for the first, 0.30 µM for the second.
